Test results taken from patent US20230097753A1, “ALPHA-HYDROXYLATED FATTY-ACID METABOLITES, MEDICAL USES AND USE AS BIOMARKERS” (UNIVERSITAT DE LES ILLES BALEARS, priority 2020, published 2023).

Experiments:
A549 = test: IC50 in tumor cell cultures (cell survival, XTT / trypan blue); format: cell-based; details: A549 human lung adenocarcinoma cell line
Procedure: (§1) Cell survival was analyzed in a Barker chamber using trypan blue vital exclusion staining (Scharlab) or by cell proliferation kit II (Roche). Briefly, the cells were seeded in 96-well plates at a density of 3 x 10^3 cells per well 24 h prior to treatment, and then cultured in the presence or absence of compounds of interest at the concentrations and for the times indicated in the figures. After different times, plaque viable cells were determined by the addition of XTT according to the manufacturers instructions. Cells were incubated at 37° C. in 5% CO2 until a constant color was developed and absorbance was recorded at 495 nm using a microplate reader with a reference wavelength of 650 nm (FLUOstar Omega, BMG LABTECH, Germany).
(§2) The anti-tumor activity of the different metabolites described in FIGS. 8 and 9 was determined by direct treatment with these molecules (HDA or C17:2 ω-6, HTA ω-3 or C17:3 ω-3, HTA ω-6 or C17:3 ω-6, NTA or C19:4 ω-6, NPA or C19:5 ω-3, and HPA or C21:5 ω-3) in tumor cell cultures, on which the IC50 value for each of these compounds was determined (Inhibitory Concentration 50: concentration of study compound that induces death of 50% of the tumor cell population).

MIA-PaCa 2 = test: as above; format: cell-based; details: Homo sapiens; MIA-PaCa 2 pancreatic cancer cell line
Procedure: as §1, §2

HEK293T cells = test: Metabolic conversion and uptake of 2-hydroxylated fatty acids in HEK293T cell cultures; format: in vitro ADME, human; details: HEK293T; for Formation of the metabolite from its 2-hydroxylated prodrug in the presence of oxythiamine: prodrug 100 μM, 24 h, 10 mM oxythiamine
Procedure: To describe the metabolic conversion of DHA-H to HPA(C21:5 ω-3), as well as the conversion of LA-H to HDA (C17:2 ω-6), ALA-H to HTA ω-3 (C17:3 ω-3), GLA-H to HTA ω-6 (C17:3 ω-6), ARA-H to NTA (C19:4 ω-6), EPA-H to NPA (C19:5 ω-3), HEK293T (Human Embryonic Kidney Cells 293T) cell cultures were employed, which is an embryonic, non-tumoral cell line, widely used in human metabolism studies under physiological conditions.
HEK293T cells were cultured in Dulbecco's Modified Eagle's Medium (DMEM; Dubelcco's Modified Eagle's Medium, Biowest, France), supplemented with 10% FBS (Fetal Bovine Serum; Gibco, Thermo-Fisher), 2 mM L-Gln, 25 mM D(+)-glucose, 1 mM sodium pyruvate, and penicillin/streptomycin. Mouse neuroblastoma N2a cells were maintained in a 1:1 (v:v) mixture of DMEM and Opti-Mem (Gibco, Thermo-Fisher), supplemented with 5% FBS and penicillin/streptomycin. Both cell lines were incubated in an atmosphere of 5% CO2 at 37° C.
HEK293T cells were incubated with DHA-H and DHA at 10, 30 and 100 μM for 24 hours, and at 30 μM for 6, 48 and 72 hours. These cells were also incubated with LA-H, ALA-H, GLA-H, ARA-H and EPA-H at 100 μM for 24 hours. HEK293T cells were also incubated with oxythiamine in the presence of DHA-H under the same conditions, at final oxythiamine concentrations of 1 and 10 mM. The HEK293T cells were separated from the plates by pipettes with cold phosphate buffer saline solution (PBS). Cells were recovered by centrifugation (1000 xg, 10 min at 4° C.) and washed twice with cold PBS before being frozen at −80° C. To analyze DHA-H and DHA levels in the cell culture medium, 90 mm diameter plates were filled with 11 mL of complete cell culture medium containing 30 μM DHA-H or DHA in the presence or absence of attached HEK293T cells (5.10^5 cells/plate). The plates were incubated as described above and 1 ml aliquots of the plates were collected at 0, 6, 24, 48 and 72 hours. Aliquots of the cell culture medium were immediately centrifuged at 1000×g for 10 min at 4° C. to remove any cell suspension and the cell-free aliquots were stored at -20° C.
The cell lysates were subjected to ultrasound pulses (4 cycles, 10 s/cycle, 10 W) before lipid extraction. For brain analysis, the tissue of each animal was homogenized in cold PBS at 1:10 (p:v) in the presence of protease inhibitors (Roche), using a blade homogenizer (Polytron PT3100). Homogenates were ultrasounded, aliquots were made and stored at −80 ° C. Only one aliquot of each sample, containing about 8 mg protein/aliquot, was subjected to lipid extraction. Protein content before lipid extraction was determined by a modified Lowry method (Bio-rad DC Protein Assay).
Margaric acid (C17:0) was added to the samples subjected to lipid extraction as an internal standard and the lipids were extracted with chloroform:methanol (Eggers and Schwudke, 2016). Briefly, 0.75 volumes of the aqueous phase (which already contained the biological sample) were mixed with 2 volumes of chloroform and 1 volume of methanol. This mixture was vortexed for 1 minute and centrifuged at 1000×g for 10 minutes. The lower organic phase was collected and washed with 1 ml of PBS:methanol (1:1,v:v), and the resulting organic phase was dried under argon flow. The film containing the extracted lipids was transmethylated by incubation of the lipid mixture for 90 minutes at 100° C. in 3 ml of methanol:acetyl chloride (10:1, v:v), under an argon atmosphere (Christie, 1993). The resulting fatty acid methyl esters (FAMEs) were extracted with hexane, adding 3 ml of H2O and 1 ml of hexane to the transmethylation reaction, and vortexing the mixture thoroughly. After centrifugation at room temperature (1000×g for 10 min), the upper phase containing the FAMEs was collected and the remaining volume was washed twice with 1 ml of hexane.

SF-295 = test: Cell survival by trypan blue vital exclusion staining, 2OHOA and oxythiamine; format: cell-based, human; details: SF-295, 2 mM oxythiamine, 72 hours
Procedure: FIG. 18. Effect of metabolite C17:1n-9 on the action of 2OHOA. […] Cell viability was determined by vital exclusion staining with trypan blue.
(§3) To study whether the metabolite C17:1n-9 can participate in the action of 2OHOA, the effect of pre-incubation with oxythiamine on cell survival and 2OHOA-regulated proteins was studied. To do this, the cell survival of different glioma and non-tumor cell lines treated with 2OHOA (400 μM, 72 hours) and pre-incubated or not with 2 mM […] (90 minutes) was analyzed by counting the cells with the vital exclusion stain with trypan blue. In addition, Western-blot 2OHOA-modulated proteins were studied. In glioma cells, a significant decrease in cell survival was observed after incubation with 2 mM oxythiamine for 72 hours.

[1] = test system: BIP, CHOP, cJun phosphorylation, phosphorylation of Akt, cyclin D3; test: Western Blot of proliferation and death markers in glioma and non-tumor cell lines; format: cell-based; details: glioma cells, oxythiamine 2 mM, 72h
Procedure: FIG. 16. Analysis of the effect of different fatty acids on markers of proliferation and death in different cell lines.
as §3

SF-295 glioma cells = test: Cell viability by violet crystal staining, 72 hours; format: cell-based, human; details: SF-295, 72 hours
Procedure: FIG. 14. Effect of 2OHOA sodium salt, OA and C17:1n-9 sodium salt on cell viability and proliferation of glioma cells. […] Viability was determined by violet crystal staining.
(§4) In order to evaluate the antiproliferative effect of C17:1n-9, its IC50, which corresponds to the amount of a compound needed to reduce cell viability in vitro by 50%, as well as its effect on the regulation of proteins involved in the mechanism of action of 2OHOA, were determined. […] Upon completion of treatment, IC50 was determined by violet crystal staining technique. […] The IC50 of 2OHOA was 1000 μM for non-tumor cells, MRC-5 and astrocytes.

[2] = test system: MRC-5 (human fibroblasts); test: as above; format: cell-based; details: MRC-5 non-tumor cells
Procedure: FIG. 15. Effect of 2OHOA sodium salt, C17:1n-9 sodium salt, and OA on cell viability and proliferation of non-tumor cells. Non-tumor cell viability curves (A1-A3) MRC-5 (human fibroblasts); and (B1-B3) mouse astrocytes treated with increasing doses of 2OHOA sodium salt (0-1000 μM) (A1 and B1); OA (0-300 μM) (A2 and B2); and C17:1n-9 sodium salt (0-300 μM) (A3 and B3) for 72 hours. Viability was determined by violet crystal staining.
as §4

SMILES | Formation of the metabolite from its 2-hydroxylated prodrug in the presence of oxythiamine (HEK293T cells) | IC50 (A549) [µM] | IC50 (MIA-PaCa 2) [µM] | also measured
CC/C=C\C/C=C\C/C=C\C/C=C\C/C=C\CCC(=O)O [NPA, (4Z,7Z,10Z,13Z,16Z)-nonadeca-4,7,10,13,16-pentaenoic acid] | inhibited | 143 ± 39 | 91 ± 18 | –
CC/C=C\C/C=C\C/C=C\C/C=C\C/C=C\C/C=C\CCC(=O)O [DHA, docosahexaenoic acid, reference compound] | – | – | – | Levels in the culture medium in the presence of cell culture (uptake) (HEK293T cells; 30 μM, up to 72 h): decreased significantly at 48 and 72 h
Cc1ncc(C[n+]2csc(CCO)c2C)c(=O)[nH]1 [oxythiamine, reference compound] | – | – | – | Cell death (SF-295): 17.35±0.63%; Effect on signaling proteins (Western Blot) [1]: in the same sense as 2OHOA, although milder; Inhibition of the increase in HPA levels from DHA-H (HEK293T cells; oxythiamine 1 mM): partial inhibition; Inhibition of the increase in HPA levels from DHA-H (HEK293T cells; oxythiamine 10 mM): almost total
CCCCCCCC/C=C\CCCCCCCC(=O)[O-].[Na+] [OA, reference compound] | – | – | – | IC50 (SF-295 glioma cells): 256 ± 5.79 µM; IC50 [2]: 236 ± 6.73 µM

Now from value to compound, other results behind:

Formation of the metabolite from its 2-hydroxylated prodrug in the presence of oxythiamine (HEK293T cells) | SMILES | IC50 (A549) [µM] | IC50 (MIA-PaCa 2) [µM] | also measured
inhibited | CCCCC/C=C\C/C=C\C/C=C\CCCC(=O)O [HTA n-6, (5Z,8Z,11Z)-heptadeca-5,8,11-trienoic acid] | 212 ± 48 | 95 ± 31 | –
inhibited | CC/C=C\C/C=C\C/C=C\CCCCCCC(=O)O [HTA n-3, (8Z,11Z,14Z)-heptadeca-8,11,14-trienoic acid] | 166 ± 30 | 216 ± 24 | –
inhibited | CCCCC/C=C\C/C=C\CCCCCCC(=O)O [HDA, (8Z,11Z)-heptadeca-8,11-dienoic acid] | 159 ± 10 | 234 ± 18 | –
inhibited | CCCCC/C=C\C/C=C\C/C=C\C/C=C\CCC(=O)O [NTA, (4Z,7Z,10Z,13Z)-nonadeca-4,7,10,13-tetraenoic acid] | 216 ± 3 | 62 ± 2 | –
